According to paper PMC5676038, “MCR-1 Inhibition with Peptide-Conjugated Phosphorodiamidate Morpholino Oligomers Restores Sensitivity to Polymyxin in Escherichia coli” (mBio, 2017):
Positions of bridges follow the written chain, without caps; N, C: chain ends. Non-standard residues stand in square brackets, D forms with d. Residues, ends and D or L forms follow the SMILES beside them. *: point of attachment. X1 = CC[C@H](C)CCCCC(=O)*; Dab = NCC[C@H](N)C(=O)O

What was measured:
[1] = tested on: E. coli MRSN 388634; experiment: Mouse septicemia model, acute; type: in vivo, BALB/c mice
Description: FIG 3 PPMOs rescue colistin activity in a mouse model of acute septicemia. Female BALB/c mice (7 to 8 weeks old) were infected via intraperitoneal injection with 8e4 CFU of MRSN 388634. At 2 and 6 h postinfection, 0.25 mg/kg colistin sulfate, 100 μg PPMO (~5 mg/kg), or the combination was administered via the i.p. route. Mice were euthanized at 24 h, and organ burden was determined. Numbers of CFU per gram of tissue of the liver (A) and spleen (B) are shown. (C) Morbidity was assessed immediately prior to euthanasia and scored as a maxima of 6 (moribund) and a nadir of 0. Mice that succumbed prior to euthanasia are depicted with the maxima score of 6. The data represent the means and standard errors of the means (SEM) of results from two replicate experiments (n = 4) (n = 8 per group total). n.s., not significant; *, P < 0.05; **, P < 0.01; ***, P < 0.001; ****, P < 0.0001 by Student’s t test, with the Mann-Whitney test used for morbidity.
Animal experiments were approved by the […] at UT Southwestern Medical Center (protocol number 2016-101626). The mouse model of septicemia with PPMO rescue of antibiotic activity was described previously ([10]).
(§1) Briefly, 7- to 8-week-old female BALB/c mice (Jackson Laboratory, Sacramento, CA, USA) were infected intraperitoneally (i.p.) with 8 × 10^4 CFU of E. coli (MRSN 388634) in DPBS with 5% mucin (M1778; Sigma-Aldrich). At 2 and 6 h postinfection, 0.25 mg/kg colistin sulfate, 100 µg PPMO, or the combination was administered i.p. in 100 µl DPBS. Morbidity was assessed at 24 h, immediately prior to euthanasia. Mice were scored from 0 to 6 as follows: 0 for the absence or 1 for the presence of a ruffled coat; 0 for a normal posture, 1 for a hunched posture, and 2 for a prostrate posture; and 0 for nondisturbed movement, 1 for slow movement, 2 for movement after prodding, and 3 for no movement. Mice that succumbed to infection prior to euthanasia were scored as the maxima, 6 (moribund). Spleen and liver were harvested and homogenized in 1 ml DPBS (Omni TH; Omni International, Kennesaw, GA), serially diluted, and plated on blood agar.

[2] = tested on: E. coli MRSN 388634; experiment: Mouse septicemia model, survival; type: in vivo, BALB/c mice
Description: FIG 4 PPMOs combined with colistin protect mice from a lethal dose of mcr-1-positive E. coli. Female BALB/c mice (7 to 8 weeks old) were infected via intraperitoneal injection with 1e6 CFU of MRSN 388634. At 2 and 6 h postinfection 0.5 mg/kg colistin sulfate, 100 μg PPMO (~5 mg/kg), or the combination was administered via the i.p. route. Mice were monitored for morbidity, with an assessment scored at a maxima of 6 (moribund; dotted line [b]) and a nadir of 0. The data represent the means and SEM from two replicate experiments (n = 4) (n = 8 per group total). (A to C) Survival curve (A), morbidity scoring (B), and weight loss measurement (C) over the course of 5 days. ****, P < 0.0001 by the Mantel-Cox log-rank test.
as §1
Mice were infected and treated as described above except that the inoculum was increased to 1 × 10^6 CFU and the colistin dose was increased to 0.5 mg/kg. Mice were weighed, and morbidity was assessed every 6 h for the first 36 h and then every 12 h out to 120 h (5 days). Mice that reached the moribund state were euthanized.

Compound	effect on burden or morbidity at 24 h, PPMO alone ([1]; BALB/c, 8 × 10^4 CFU i.p., PPMO 100 μg (~5 mg/kg) i.p. at 2 and 6 h postinfection, n = 8)	decrease in the number of CFU, combination with colistin ([1]; PPMO ~5 mg/kg + colistin sulfate 0.25 mg/kg i.p. at 2 and 6 h, 24 h)	liver burden and morbidity, combination with colistin, compared to Ctrl PPMO and colistin ([1]; PPMO ~5 mg/kg + colistin sulfate 0.25 mg/kg i.p. at 2 and 6 h, 24 h, n = 8)	numbers of CFU in liver and spleen at 24 h, combination with colistin, compared to DPBS control ([1]; PPMO ~5 mg/kg + colistin sulfate 0.25 mg/kg i.p. at 2 and 6 h, n = 8)	survival to the 5-day endpoint, combination with colistin ([2]; BALB/c, 1 × 10^6 CFU i.p., PPMO 100 μg (~5 mg/kg) + colistin sulfate 0.5 mg/kg i.p. at 2 and 6 h, n = 6/8)	body weight course, combination with colistin ([2]; PPMO ~5 mg/kg + colistin sulfate 0.5 mg/kg, over 5 days)	morbidity course, combination with colistin ([2]; PPMO ~5 mg/kg + colistin sulfate 0.5 mg/kg, score 0 to 6)	burden in the liver and morbidity at 24 h, colistin alone ([1]; BALB/c, 8 × 10^4 CFU i.p., colistin sulfate 0.25 mg/kg i.p. at 2 and 6 h, n = 8)
TCAAAGAGTAC [Mcr1-0545, (RXR)4XB 3′-end-conjugated PPMO targeted to mcr-1 mRNA, positions −8 to +3; theone tested in mice]	Neither the MCR-1 nor the Ctrl PPMO alone had an effect	~ 1 log	significantly less	significant reduction	75%	continued to lose weight over the course of the experiment	increased initially, but the mice began to recover by 24 h	–
CC[C@H](C)CCCCC(=O)N[C@@H](CCN)C(=O)N[C@H](C(=O)N[C@@H](CCN)C(=O)N[C@H]1CCNC(=O)[C@H]([C@@H](C)O)NC(=O)[C@H](CCN)NC(=O)[C@H](CCN)NC(=O)[C@H](CC(C)C)NC(=O)[C@@H](CC(C)C)NC(=O)[C@H](CCN)NC1=O)[C@@H](C)O [Colistin, colistin, reference compound] (X1-[Dab]T[Dab][Dab][Dab][dL]L[Dab][Dab]T; lactam 4-C (inferred); N-terminus assumed)	–	–	–	–	–	–	–	significant reduction
